Assay [1] addresses T1, GABA-A receptor; alpha-1/beta-3/gamma-2 (Homo sapiens, UniProt P14867+P18507+P28472).
T1 sequence (P14867 whole entry): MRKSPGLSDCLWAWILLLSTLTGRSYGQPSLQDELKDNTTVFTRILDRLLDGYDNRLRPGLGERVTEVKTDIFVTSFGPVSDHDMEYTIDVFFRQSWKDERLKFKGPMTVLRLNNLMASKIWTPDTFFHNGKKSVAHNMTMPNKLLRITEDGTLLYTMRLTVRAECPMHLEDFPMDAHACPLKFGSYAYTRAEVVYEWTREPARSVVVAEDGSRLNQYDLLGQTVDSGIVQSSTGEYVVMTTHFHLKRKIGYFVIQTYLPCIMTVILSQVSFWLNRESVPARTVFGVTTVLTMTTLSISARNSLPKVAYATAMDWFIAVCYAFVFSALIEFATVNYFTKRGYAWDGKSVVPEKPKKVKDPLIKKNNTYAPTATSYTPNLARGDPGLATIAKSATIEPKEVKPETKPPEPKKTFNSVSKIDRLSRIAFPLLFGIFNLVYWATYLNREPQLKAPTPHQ
T1 sequence (P18507 whole entry): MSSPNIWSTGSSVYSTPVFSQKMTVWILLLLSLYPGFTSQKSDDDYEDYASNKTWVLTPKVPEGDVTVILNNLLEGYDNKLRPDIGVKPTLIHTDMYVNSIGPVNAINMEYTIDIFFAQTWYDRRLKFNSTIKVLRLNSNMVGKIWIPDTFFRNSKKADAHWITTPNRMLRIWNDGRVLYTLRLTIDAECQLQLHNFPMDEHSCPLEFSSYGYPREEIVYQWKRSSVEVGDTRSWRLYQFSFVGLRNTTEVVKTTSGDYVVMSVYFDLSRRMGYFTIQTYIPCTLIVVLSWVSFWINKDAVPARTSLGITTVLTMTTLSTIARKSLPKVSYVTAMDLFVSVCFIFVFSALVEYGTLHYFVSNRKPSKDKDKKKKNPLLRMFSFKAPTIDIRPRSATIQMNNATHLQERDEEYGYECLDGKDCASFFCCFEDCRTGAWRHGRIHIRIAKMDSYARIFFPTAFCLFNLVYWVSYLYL
T1 sequence (P28472 whole entry): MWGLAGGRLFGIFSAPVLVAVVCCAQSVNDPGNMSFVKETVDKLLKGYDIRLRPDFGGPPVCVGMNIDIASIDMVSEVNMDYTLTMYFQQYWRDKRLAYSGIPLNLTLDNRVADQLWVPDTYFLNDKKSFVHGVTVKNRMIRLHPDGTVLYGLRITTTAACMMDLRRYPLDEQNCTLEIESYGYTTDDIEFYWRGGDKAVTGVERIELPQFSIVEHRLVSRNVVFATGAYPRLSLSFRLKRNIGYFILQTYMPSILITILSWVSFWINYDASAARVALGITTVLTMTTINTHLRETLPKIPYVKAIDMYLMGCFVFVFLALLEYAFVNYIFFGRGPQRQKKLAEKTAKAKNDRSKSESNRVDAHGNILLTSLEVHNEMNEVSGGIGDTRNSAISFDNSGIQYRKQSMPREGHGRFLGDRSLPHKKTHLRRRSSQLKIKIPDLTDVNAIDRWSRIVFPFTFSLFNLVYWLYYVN
In words: Effective agonist dose for human Gamma-aminobutyric acid A receptor alpha-1-beta-3-gamma-2 expressed in Xenopus oocytes. It counts as functional, cell-based, Oocyte.

Assay [2] deals with T2, GABA-A receptor; alpha-5/beta-3/gamma-2 (Homo sapiens, UniProt P18507+P28472+P31644).
T2 sequence (P18507 whole entry): T1 sequence (P18507 whole entry)
T2 sequence (P28472 whole entry): T1 sequence (P28472 whole entry)
T2 sequence (P31644 whole entry): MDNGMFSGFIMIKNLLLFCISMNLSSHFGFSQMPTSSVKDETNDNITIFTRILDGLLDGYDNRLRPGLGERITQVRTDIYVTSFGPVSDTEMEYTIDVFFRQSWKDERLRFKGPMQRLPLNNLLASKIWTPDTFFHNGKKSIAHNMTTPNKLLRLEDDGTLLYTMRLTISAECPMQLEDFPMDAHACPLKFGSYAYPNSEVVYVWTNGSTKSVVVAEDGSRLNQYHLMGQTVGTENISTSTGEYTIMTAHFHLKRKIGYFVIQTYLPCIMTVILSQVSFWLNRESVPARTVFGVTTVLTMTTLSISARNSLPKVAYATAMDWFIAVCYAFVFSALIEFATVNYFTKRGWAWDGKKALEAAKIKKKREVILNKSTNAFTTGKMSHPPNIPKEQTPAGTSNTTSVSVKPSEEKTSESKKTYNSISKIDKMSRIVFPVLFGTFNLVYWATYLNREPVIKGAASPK
The experiment in a line: Effective agonist dose for human Gamma-aminobutyric acid A receptor alpha-5-beta-3-gamma-2 expressed in Xenopus oocytes. The format is functional, cell-based, Oocyte.

Assay [3] concerns the target GABA-A receptor; alpha-1/beta-3/gamma-2 (Homo sapiens) (UniProt P14867+P18507+P28472). In words: Maximal response relative to Gamma-aminobutyric acid A against human Gamma-aminobutyric-acid A receptor alpha-1-beta-3-gamma-2 expressed in Xenopus oocytes. The format is functional, cell-based. As to conditions: Oocyte.
Assay [4] addresses GABA-A receptor; alpha-3/beta-3/gamma-2 (Homo sapiens) (UniProt P18507+P28472+P34903). The experiment in a line: Maximal response relative to Gamma-aminobutyric acid A against human Gamma-aminobutyric-acid A receptor alpha-3-beta-3-gamma-2 expressed in Xenopus oocytes. The format is functional, cell-based. The note with it: Oocyte.
Assay [5] concerns the target T3, GABA A receptor alpha-4/beta-3/gamma-2 (Homo sapiens, UniProt P18507+P28472+P48169). The experiment in a line: Effective agonist dose for human Gamma-aminobutyric acid A receptor alpha-4-beta-3-gamma-2. It counts as functional.
The target of assay [6] is T4, GABA-A receptor; alpha-2/beta-3/gamma-2 (Homo sapiens, UniProt P18507+P28472+P47869).
T4 sequence (P18507 whole entry): T1 sequence (P18507 whole entry)
T4 sequence (P28472 whole entry): T1 sequence (P28472 whole entry)
T4 sequence (P47869 whole entry): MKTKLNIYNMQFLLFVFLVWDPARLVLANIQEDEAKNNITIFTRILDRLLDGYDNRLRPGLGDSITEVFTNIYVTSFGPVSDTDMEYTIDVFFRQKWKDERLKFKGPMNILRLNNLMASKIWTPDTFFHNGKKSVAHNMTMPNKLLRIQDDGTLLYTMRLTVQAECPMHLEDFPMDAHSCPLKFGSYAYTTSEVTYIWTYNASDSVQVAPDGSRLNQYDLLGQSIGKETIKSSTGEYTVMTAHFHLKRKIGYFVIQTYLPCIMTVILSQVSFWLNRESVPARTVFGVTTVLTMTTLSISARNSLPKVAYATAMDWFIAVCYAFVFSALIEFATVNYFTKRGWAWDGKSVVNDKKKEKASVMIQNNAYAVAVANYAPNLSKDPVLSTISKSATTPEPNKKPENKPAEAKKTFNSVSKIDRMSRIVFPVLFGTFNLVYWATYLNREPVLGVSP
The experiment in a line: Effective dose for agonist activity on human Gamma-aminobutyric acid A receptor alpha-2-beta-3-gamma-2 in Xenopus oocytes. The format is functional, cell-based, Oocyte.

In assay [7] the target is T5, GABA-A receptor; alpha-6/beta-3/gamma-2 (Homo sapiens, UniProt P18507+P28472+Q16445). In words: Effective agonist dose for human Gamma-aminobutyric acid A receptor alpha-6-beta-3-gamma-2. It counts as functional.
T5 sequence (Q16445 whole entry, one chain of several): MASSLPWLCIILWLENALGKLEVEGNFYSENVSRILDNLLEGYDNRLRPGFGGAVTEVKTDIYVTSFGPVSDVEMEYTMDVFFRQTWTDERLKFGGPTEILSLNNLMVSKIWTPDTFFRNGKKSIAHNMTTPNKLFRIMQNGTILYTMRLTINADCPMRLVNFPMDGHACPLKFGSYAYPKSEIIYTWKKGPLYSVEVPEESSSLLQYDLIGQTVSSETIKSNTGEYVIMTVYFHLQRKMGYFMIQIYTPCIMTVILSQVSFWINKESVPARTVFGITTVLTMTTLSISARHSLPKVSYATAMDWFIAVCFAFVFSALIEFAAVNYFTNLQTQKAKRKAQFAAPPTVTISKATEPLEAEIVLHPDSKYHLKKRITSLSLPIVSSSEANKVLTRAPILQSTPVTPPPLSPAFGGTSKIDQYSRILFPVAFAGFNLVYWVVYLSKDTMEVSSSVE
Assay [8] concerns the target T6, GABA-A receptor; alpha-3/beta-3/gamma-2 (Homo sapiens, UniProt P18507+P28472+P34903).
T6 sequence (P18507 whole entry): T1 sequence (P18507 whole entry)
T6 sequence (P28472 whole entry): T1 sequence (P28472 whole entry)
T6 sequence (P34903 whole entry): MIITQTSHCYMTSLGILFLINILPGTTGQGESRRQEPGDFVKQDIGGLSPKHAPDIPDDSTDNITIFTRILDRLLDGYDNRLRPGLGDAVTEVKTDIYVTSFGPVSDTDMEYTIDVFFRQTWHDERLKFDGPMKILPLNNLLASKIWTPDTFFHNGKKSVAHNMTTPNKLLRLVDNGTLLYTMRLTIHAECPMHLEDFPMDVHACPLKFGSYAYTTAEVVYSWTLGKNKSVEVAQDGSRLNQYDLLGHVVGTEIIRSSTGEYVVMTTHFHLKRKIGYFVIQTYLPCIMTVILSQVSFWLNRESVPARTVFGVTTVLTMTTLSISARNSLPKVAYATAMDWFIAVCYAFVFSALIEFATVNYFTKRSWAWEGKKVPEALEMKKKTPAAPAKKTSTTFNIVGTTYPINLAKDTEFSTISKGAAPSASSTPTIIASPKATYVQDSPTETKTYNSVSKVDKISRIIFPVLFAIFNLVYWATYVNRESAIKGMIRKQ
The experiment in a line: Agonist activity on human Gamma-aminobutyric acid A receptor alpha-3-beta-3-gamma-2 expressed in Xenopus oocytes. It counts as functional, cell-based, Oocyte.

For assay [9], the target named is T3, GABA A receptor alpha-4/beta-3/gamma-2. The experiment in a line: Maximal response relative to Gamma-aminobutyric acid A against human Gamma-aminobutyric-acid A receptor alpha-4-beta-3-gamma-2 expressed in Xenopus oocytes. It counts as functional, cell-based. As to conditions: Oocyte.
The target of assay [10] is GABA-A receptor; alpha-2/beta-3/gamma-2 (Homo sapiens) (UniProt P18507+P28472+P47869). In words: Maximal response relative to Gamma-aminobutyric acid A against human Gamma-aminobutyric-acid A receptor alpha-2-beta-3-gamma-2 expressed in Xenopus oocytes. It counts as functional, cell-based. The note with it: Oocyte.
Assay [11] concerns the target T5, GABA-A receptor; alpha-6/beta-3/gamma-2. In words: Maximal response relative to Gamma-aminobutyric acid A against human Gamma-aminobutyric-acid A receptor alpha-6-beta-3-gamma-2 expressed in Xenopus oocytes. It counts as functional, cell-based. As to conditions: Oocyte.
Assay [12] concerns the target GABA-A receptor; alpha-5/beta-3/gamma-2 (Homo sapiens) (UniProt P18507+P28472+P31644). The experiment in a line: Maximal response relative to Gamma-aminobutyric acid A against human Gamma-aminobutyric-acid A receptor alpha-5-beta-3-gamma-2 expressed in Xenopus oocytes. It counts as functional, cell-based. As to conditions: Oocyte.

Structures are written as SMILES.

T3 sequence (P48169 whole entry, one chain of several): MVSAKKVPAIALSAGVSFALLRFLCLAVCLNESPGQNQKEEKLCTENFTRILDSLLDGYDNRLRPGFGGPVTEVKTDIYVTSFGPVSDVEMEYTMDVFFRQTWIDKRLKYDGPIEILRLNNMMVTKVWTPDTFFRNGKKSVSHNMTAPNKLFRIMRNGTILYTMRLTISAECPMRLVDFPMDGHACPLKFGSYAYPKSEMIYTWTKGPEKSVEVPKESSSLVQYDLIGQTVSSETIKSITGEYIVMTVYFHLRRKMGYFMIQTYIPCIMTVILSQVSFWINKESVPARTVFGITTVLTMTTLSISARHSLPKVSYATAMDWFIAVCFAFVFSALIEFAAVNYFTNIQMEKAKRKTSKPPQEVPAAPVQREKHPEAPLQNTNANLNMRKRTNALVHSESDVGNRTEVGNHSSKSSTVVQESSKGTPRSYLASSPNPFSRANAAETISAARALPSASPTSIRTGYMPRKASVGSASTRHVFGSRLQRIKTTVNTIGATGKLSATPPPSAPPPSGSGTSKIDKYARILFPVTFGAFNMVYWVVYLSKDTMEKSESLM

In general, EC50 refers to the concentration needed to bring the measured effect to its halfway point. Low readings indicate greater potency, high ones weaker potency. Consider `O=[Se](O)C1CCNCC1`, for which the EC50 in assay [1] came out at 200 µM; in assay [2] it was 420 µM; in [5], 160 µM; in [6] it was 170 µM; in [7], 240 µM; in [8], 180 µM. Besides, the Max worked out at 3 in assay [3]; 28 in [4]; 0 in [9]; 2 in assay [10]; 13 in assay [11]; 3 in assay [12].
